Assay results published in PMC1989143, “An Expanded Set of Amino Acid Analogs for the Ribosomal Translation of Unnatural Peptides” (PLoS ONE, 2007).

Tests used:
Assay in all cases: tRNA aminoacylation competition assay, MALDI-TOF MS
Assay type in all cases: biochemical
[1] = target: T1, HisRS (Escherichia coli, UniProt P60906); details: 15000 µM; 15 µM natural His (Table 3), 6 mM ATP, 17 mM MgCl2, E. coli total tRNA, pH 7.4, 37 °C; competitive
T1 construct: gene hisS; His-tagged, recombinant, purified
T1 sequence (P60906 2-424): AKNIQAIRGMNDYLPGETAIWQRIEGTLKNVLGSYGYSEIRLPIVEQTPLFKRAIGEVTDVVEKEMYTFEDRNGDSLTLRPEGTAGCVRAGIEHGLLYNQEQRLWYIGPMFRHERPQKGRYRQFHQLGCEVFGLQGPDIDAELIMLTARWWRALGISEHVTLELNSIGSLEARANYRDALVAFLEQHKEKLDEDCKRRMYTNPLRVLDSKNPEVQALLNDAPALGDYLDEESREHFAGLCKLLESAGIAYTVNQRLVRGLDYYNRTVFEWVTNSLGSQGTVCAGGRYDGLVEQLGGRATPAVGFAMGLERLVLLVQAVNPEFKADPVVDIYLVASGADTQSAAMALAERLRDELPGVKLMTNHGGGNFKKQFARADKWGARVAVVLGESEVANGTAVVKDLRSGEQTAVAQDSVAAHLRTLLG
Source text: tRNA aminoacylation competition assay, MALDI-TOF MS on HisRS

[2] = target: T2, TyrRS (Escherichia coli, UniProt P0AGJ9); details: 5000 µM; 5 µM natural Tyr (Table 3), 6 mM ATP, 17 mM MgCl2, E. coli total tRNA, pH 7.4, 37 °C; competitive
T2 construct: gene tyrS; His-tagged, recombinant, purified
Source text: tRNA aminoacylation competition assay, MALDI-TOF MS on TyrRS

[3] = target: T3, GluRS (Escherichia coli, UniProt P04805); details: 10000 µM; 10 µM natural Glu (Table 3), 6 mM ATP, 17 mM MgCl2, E. coli total tRNA, pH 7.4, 37 °C; competitive
T3 construct: gene gltX; His-tagged, recombinant, purified
T3 sequence (P04805 1-471): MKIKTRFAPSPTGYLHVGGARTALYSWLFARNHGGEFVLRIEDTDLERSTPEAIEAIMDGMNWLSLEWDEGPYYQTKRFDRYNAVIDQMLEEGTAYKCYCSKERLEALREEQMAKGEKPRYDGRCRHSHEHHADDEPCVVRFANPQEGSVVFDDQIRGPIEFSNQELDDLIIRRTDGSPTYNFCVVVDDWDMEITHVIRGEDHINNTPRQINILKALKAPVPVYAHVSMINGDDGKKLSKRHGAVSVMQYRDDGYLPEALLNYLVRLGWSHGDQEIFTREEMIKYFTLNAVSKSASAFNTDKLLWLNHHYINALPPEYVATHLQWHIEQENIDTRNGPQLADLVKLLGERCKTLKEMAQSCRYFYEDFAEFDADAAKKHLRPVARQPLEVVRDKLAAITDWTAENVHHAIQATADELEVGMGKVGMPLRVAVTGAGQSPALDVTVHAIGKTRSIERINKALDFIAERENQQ
Source text: tRNA aminoacylation competition assay, MALDI-TOF MS on GluRS

[4] = target: T4, TrpRS (Escherichia coli, UniProt P00954); details: 30000 µM; 30 µM natural Trp (Table 3), 6 mM ATP, 17 mM MgCl2, E. coli total tRNA, pH 7.4, 37 °C; competitive
T4 construct: gene trpS
Source text: tRNA aminoacylation competition assay, MALDI-TOF MS on TrpRS

[5] = target: T5, AspRS (Escherichia coli, UniProt P21889); details: 50000 µM; 50 µM natural Asp (Table 3), 6 mM ATP, 17 mM MgCl2, E. coli total tRNA, pH 7.4, 37 °C; competitive
T5 construct: gene aspS; His-tagged, recombinant, purified
Source text: tRNA aminoacylation competition assay, MALDI-TOF MS on AspRS

[6] = target: T6, ArgRS (Escherichia coli, UniProt P11875); details: 20000 µM; 20 µM natural Arg (Table 3), 6 mM ATP, 17 mM MgCl2, E. coli total tRNA, pH 7.4, 37 °C; competitive
T6 construct: gene argS; His-tagged, recombinant, purified
T6 sequence (P11875 1-577): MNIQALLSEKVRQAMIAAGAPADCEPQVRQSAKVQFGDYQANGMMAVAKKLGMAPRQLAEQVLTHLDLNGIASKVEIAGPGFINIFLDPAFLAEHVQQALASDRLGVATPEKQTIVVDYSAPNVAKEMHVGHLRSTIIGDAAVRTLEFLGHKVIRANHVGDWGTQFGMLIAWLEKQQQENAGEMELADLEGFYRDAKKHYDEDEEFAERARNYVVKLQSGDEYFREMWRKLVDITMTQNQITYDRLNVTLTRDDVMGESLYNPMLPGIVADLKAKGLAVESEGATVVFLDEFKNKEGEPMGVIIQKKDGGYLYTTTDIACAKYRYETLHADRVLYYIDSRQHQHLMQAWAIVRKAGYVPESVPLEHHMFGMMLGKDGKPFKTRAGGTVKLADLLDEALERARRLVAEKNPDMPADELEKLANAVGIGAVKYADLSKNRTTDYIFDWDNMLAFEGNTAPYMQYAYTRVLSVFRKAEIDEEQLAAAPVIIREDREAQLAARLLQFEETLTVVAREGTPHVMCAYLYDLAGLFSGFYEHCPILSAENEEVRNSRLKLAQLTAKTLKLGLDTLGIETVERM
Source text: tRNA aminoacylation competition assay, MALDI-TOF MS on ArgRS

[7] = target: T7, MetRS (Escherichia coli, UniProt P00959); details: 50000 µM; 50 µM natural Met (Table 3), 6 mM ATP, 17 mM MgCl2, E. coli total tRNA, pH 7.4, 37 °C; competitive
T7 construct: gene metG; His-tagged, recombinant, purified
T7 sequence (P00959 2-677): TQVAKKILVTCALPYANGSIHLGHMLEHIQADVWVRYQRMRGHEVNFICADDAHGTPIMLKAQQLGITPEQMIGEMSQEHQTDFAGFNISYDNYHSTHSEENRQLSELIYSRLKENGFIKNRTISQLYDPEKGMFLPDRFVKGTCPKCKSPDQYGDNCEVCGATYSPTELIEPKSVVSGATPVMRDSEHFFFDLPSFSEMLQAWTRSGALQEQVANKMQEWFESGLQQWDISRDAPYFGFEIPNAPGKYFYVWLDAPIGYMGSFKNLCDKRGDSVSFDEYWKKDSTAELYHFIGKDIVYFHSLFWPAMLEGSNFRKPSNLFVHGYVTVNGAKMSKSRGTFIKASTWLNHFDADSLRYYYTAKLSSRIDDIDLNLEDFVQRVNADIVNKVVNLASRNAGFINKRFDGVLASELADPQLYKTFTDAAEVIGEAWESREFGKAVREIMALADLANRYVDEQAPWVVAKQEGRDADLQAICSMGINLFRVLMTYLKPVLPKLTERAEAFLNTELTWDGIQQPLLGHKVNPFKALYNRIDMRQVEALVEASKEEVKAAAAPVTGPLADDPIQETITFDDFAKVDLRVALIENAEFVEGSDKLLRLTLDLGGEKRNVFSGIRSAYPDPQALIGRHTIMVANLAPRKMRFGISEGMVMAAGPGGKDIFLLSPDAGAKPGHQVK
Source text: tRNA aminoacylation competition assay, MALDI-TOF MS on MetRS

[8] = target: T8, ValRS (Escherichia coli, UniProt P07118); details: 50000 µM; 50 µM natural Val (Table 3), 6 mM ATP, 17 mM MgCl2, E. coli total tRNA, pH 7.4, 37 °C; competitive
T8 construct: gene valS; His-tagged, recombinant, purified
T8 sequence (P07118 1-951): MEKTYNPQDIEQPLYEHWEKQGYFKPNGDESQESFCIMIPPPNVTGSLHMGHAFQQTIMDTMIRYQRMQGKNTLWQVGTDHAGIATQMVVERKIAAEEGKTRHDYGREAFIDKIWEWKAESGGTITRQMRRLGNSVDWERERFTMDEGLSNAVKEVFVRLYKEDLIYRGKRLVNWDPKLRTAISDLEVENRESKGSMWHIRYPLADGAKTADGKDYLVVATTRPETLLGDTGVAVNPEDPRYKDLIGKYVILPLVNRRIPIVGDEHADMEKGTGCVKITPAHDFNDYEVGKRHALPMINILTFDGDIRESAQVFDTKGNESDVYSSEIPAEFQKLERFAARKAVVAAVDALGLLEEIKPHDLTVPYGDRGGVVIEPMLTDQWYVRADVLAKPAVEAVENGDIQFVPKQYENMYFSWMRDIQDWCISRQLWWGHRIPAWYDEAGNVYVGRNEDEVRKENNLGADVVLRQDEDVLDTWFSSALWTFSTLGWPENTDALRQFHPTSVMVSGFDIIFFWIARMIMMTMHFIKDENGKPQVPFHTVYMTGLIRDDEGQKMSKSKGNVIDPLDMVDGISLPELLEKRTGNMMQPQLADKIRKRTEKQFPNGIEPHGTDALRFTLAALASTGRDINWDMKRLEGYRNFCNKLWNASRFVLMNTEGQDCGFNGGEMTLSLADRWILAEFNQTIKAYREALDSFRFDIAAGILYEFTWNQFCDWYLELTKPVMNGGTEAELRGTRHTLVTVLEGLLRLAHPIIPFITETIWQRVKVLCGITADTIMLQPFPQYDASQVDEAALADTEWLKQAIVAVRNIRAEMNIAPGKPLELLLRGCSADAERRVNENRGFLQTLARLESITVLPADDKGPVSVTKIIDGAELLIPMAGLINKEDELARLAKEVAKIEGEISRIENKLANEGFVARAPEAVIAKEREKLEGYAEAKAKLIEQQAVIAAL
Source text: tRNA aminoacylation competition assay, MALDI-TOF MS on ValRS

[9] = target: T9, LeuRS (Escherichia coli, UniProt P07813); details: 30000 µM; 30 µM natural Leu (Table 3), 6 mM ATP, 17 mM MgCl2, E. coli total tRNA, pH 7.4, 37 °C; competitive
T9 construct: gene leuS; His-tagged, recombinant, purified; wild-type
Source text: tRNA aminoacylation competition assay, MALDI-TOF MS on LeuRS

[10] = target: T10, ProRS (Escherichia coli, UniProt P16659); details: 50000 µM; 50 µM natural Pro (Table 3), 6 mM ATP, 17 mM MgCl2, E. coli total tRNA, pH 7.4, 37 °C; competitive
T10 construct: gene proS; His-tagged, recombinant, purified
T10 sequence (P16659 1-572): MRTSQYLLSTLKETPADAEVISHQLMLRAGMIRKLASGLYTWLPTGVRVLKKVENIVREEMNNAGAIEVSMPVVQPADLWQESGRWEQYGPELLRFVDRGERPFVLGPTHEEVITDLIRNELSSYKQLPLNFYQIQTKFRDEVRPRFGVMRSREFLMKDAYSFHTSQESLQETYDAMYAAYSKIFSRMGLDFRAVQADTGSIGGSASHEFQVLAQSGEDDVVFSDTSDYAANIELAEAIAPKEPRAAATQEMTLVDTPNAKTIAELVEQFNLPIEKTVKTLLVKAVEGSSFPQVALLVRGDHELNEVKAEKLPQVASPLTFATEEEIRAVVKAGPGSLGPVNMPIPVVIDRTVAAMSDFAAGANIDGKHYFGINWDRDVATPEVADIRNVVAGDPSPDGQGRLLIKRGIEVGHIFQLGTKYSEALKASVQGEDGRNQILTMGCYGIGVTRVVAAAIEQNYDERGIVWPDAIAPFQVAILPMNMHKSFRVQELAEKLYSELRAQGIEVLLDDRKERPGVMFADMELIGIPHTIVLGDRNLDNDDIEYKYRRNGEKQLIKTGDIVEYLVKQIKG
Source text: tRNA aminoacylation competition assay, MALDI-TOF MS on ProRS

N[C@@H](Cc1nccs1)C(=O)O [A1, β-2-thiazolyl-alanine]
% Inhibition ^b [1]: 20 (range 0.4) %

NC(Cc1ccc(O)c(F)c1)C(=O)O (stereo not drawn) [A3, 3-fluoro tyrosine]
% Inhibition ^b [2]: 46 (range 23.0) %

N[C@@H](Cn1oc(=O)[nH]c1=O)C(=O)O [A15, L-quisqualic acid]
% Inhibition ^b [3]: 52 (range 1.2) %

N[C@@H](Cc1csc2ccccc12)C(=O)O [A23, 3-(thianaphthen-3-yl)-L-alanine]
% Inhibition ^b [4]: 19 (range 2.7) %

N[C@H](C(=O)O)[C@H](O)C(=O)O [C6, L-threo-β-hydroxy aspartic acid]
% Inhibition ^b [5]: 59 (range 0.5) %

N=C(N)NOCC[C@H](N)C(=O)O [C10, L-canavanine]
% Inhibition ^b [6]: 82 (range 10.3) %

C#CCCC(N)C(=O)O (stereo not drawn) [N1, 2-amino hex-5-ynoic acid]
% Inhibition ^b [7]: 82 (range 3.3) %

CCCC[C@H](N)C(=O)O [N3, L-norleucine]
% Inhibition ^b [7]: 73 (range 0.5) %

[N-]=[N+]=NCC[C@H](N)C(=O)O [N6]
% Inhibition ^b [7]: 97 (range 0.5) %

CC(C)(C)C(N)C(=O)O (stereo not drawn) [N13, t-butyl-glycine]
% Inhibition ^b [8]: 80 (range 0.4) %

CC(CC(N)C(=O)O)C(F)(F)F (stereo not drawn) [N17, 5′,5′,5′-trifluoro leucine]
% Inhibition ^b [9]: 83 (range 16.7) %

CC(C)(C)C[C@H](N)C(=O)O [N18, β-t-butyl-alanine]
% Inhibition ^b [9]: 52 (range 22.2) %

O=C(O)[C@@H]1C=CCN1 [N23, 3,4-dehydro proline]
% Inhibition ^b [10]: 67 (range 12.6) %

O=C(O)[C@@H]1CCN1 [N24, L-azetidine-2-carboxylic acid]
% Inhibition ^b [10]: 28 (range 10.0) %

NC1(C(=O)O)CCCC1 [α1, 1-amino cyclopentanoic acid]
% Inhibition ^b [8]: 59 (range 3.3) %
